Results reported in PubChem BioAssay AID258 (DTP/NCI, 2004).
Values joined by “and” are separate entries in the source; they are usually repeats but may differ in a detail not shown here. Equal entries are not always repeated. Toxic doses and inconclusive results are not listed.

System: CD2F1 mice, L1210 leukemia sc, survival T/C
Experiment: NCI In Vivo Anticancer Drug Screen. Data for tumor model L1210 Leukemia (subcutaneous) in CD2F1 (CDF1) mice
Conditions: endpoint: median survival time, higher = longer survival
Procedure: The antitumor activity of compounds was measured in mice bearing transplantable tumors. Survival or tumor size were measured and the results are expressed as the measurement made in the treated group (T) divided by the measurement made in the vehicle treated control group (C). The tumor model used in this assay is L1210 Leukemia (subcutaneous) in CD2F1 (CDF1) mice

## O=C1NC(=O)C2C3C=CC(C12)C1C2C(=O)NC(=O)C2C31 (stereo not drawn)
dose: 3.0 mg/kg/injection, schedule: Q01DX005 (iv), vehicle: other
  T/C: 108 % of control
dose: 6.0 mg/kg/injection, schedule: Q01DX005 (ip), vehicle: other
  T/C: 111 % of control
dose: 6.0 mg/kg/injection, schedule: Q01DX005 (iv), vehicle: other
  T/C: 104 % of control
dose: 6.0 mg/kg/injection, schedule: Q01DX005 (sc), vehicle: other
  T/C: 105 % of control
dose: 12.0 mg/kg/injection, schedule: Q01DX005 (ip), vehicle: other
  T/C: 104 % of control
dose: 12.0 mg/kg/injection, schedule: Q01DX005 (iv), vehicle: other
  T/C: 104 % of control and 107 % of control
dose: 12.0 mg/kg/injection, schedule: Q01DX005 (sc), vehicle: other
  T/C: 108 % of control
dose: 12.0 mg/kg/injection, schedule: Q01DX009 (ip), vehicle: other
  T/C: 115 % of control
dose: 14.0 mg/kg/injection, schedule: Q01DX009 (ip), vehicle: water
  T/C: 110 % of control
dose: 17.2 mg/kg/injection, schedule: Q01DX005 (iv), vehicle: other
  T/C: 107 % of control
dose: 17.2 mg/kg/injection, schedule: Q01DX009 (ip), vehicle: other
  T/C: 122 % of control
dose: 18.0 mg/kg/injection, schedule: Q01DX009 (ip), vehicle: clinical formulation
  T/C: 121 % of control
dose: 24.5 mg/kg/injection, schedule: Q01DX005 (iv), vehicle: other
  T/C: 110 % of control
dose: 25.0 mg/kg/injection, schedule: Q01DX005 (ip), vehicle: other
  T/C: 113 % of control
dose: 25.0 mg/kg/injection, schedule: Q01DX005 (ip), vehicle: saline with Tween-80
  T/C: 105 % of control
dose: 25.0 mg/kg/injection, schedule: Q01DX005 (sc), vehicle: other
  T/C: 114 % of control
dose: 30.0 mg/kg/injection, schedule: Q01DX009 (ip), vehicle: clinical formulation
  T/C: 150 % of control
dose: 38.9 mg/kg/injection, schedule: Q01DX009 (ip), vehicle: water
  T/C: 203 % of control
dose: 50.0 mg/kg/injection, schedule: Q01DX005 (ip), vehicle: other
  T/C: 164 % of control
dose: 50.0 mg/kg/injection, schedule: Q01DX005 (iv), vehicle: other
  T/C: 160 % of control and 175 % of control
dose: 50.0 mg/kg/injection, schedule: Q01DX005 (oral), vehicle: other
  T/C: 105 % of control
dose: 50.0 mg/kg/injection, schedule: Q01DX005 (sc), vehicle: other
  T/C: 152 % of control
dose: 50.0 mg/kg/injection, schedule: Q01DX009 (ip), vehicle: clinical formulation
  T/C: 192 % of control
dose: 50.0 mg/kg/injection, schedule: Q01DX009 (ip), vehicle: other
  T/C: 166 % of control
dose: 64.8 mg/kg/injection, schedule: Q01DX009 (ip), vehicle: water
  T/C: 291 % of control
dose: 71.4 mg/kg/injection, schedule: Q01DX005 (iv), vehicle: other
  T/C: 247 % of control
dose: 71.4 mg/kg/injection, schedule: Q01DX009 (ip), vehicle: other
  T/C: 250 % of control
dose: 83.3 mg/kg/injection, schedule: Q01DX009 (ip), vehicle: clinical formulation
  T/C: 106 % of control
dose: 100.0 mg/kg/injection, schedule: Q01DX005 (ip), vehicle: saline with Tween-80
  T/C: 204 % of control
dose: 100.0 mg/kg/injection, schedule: Q01DX005 (oral), vehicle: other
  T/C: 108 % of control
dose: 100.0 mg/kg/injection, schedule: Q01DX005 (sc), vehicle: other
  T/C: 89 % of control
dose: 200.0 mg/kg/injection, schedule: Q01DX005 (oral), vehicle: other
  T/C: 113 % of control
dose: 252.0 mg/kg/injection, schedule: Q01DX009 (oral), vehicle: other
  T/C: 171 % of control
dose: 378.0 mg/kg/injection, schedule: Q01DX009 (oral), vehicle: other
  T/C: 162 % of control
dose: 400.0 mg/kg/injection, schedule: Q01DX005 (oral), vehicle: other
  T/C: 108 % of control
dose: 800.0 mg/kg/injection, schedule: Q01DX005 (oral), vehicle: other
  T/C: 229 % of control
dose: 850.0 mg/kg/injection, schedule: Q01DX009 (oral), vehicle: other
  T/C: 182 % of control
dose: 1274.0 mg/kg/injection, schedule: Q01DX009 (oral), vehicle: other
  T/C: 225 % of control
